Reference: US9121806B1, “Impedance spectroscopy-based cellular analysis device” (University of South Florida, priority 2007, dated 2015)

Tested on: OvCa429 cells
Assay: Effect of trypsin on confluent OvCa429 cell culture monitored by impedance phase angle mapping
Type: cell-based
Conditions: 20 μl of trypsin added to culture medium after 5 h of monitoring, approximately 80% confluence, monitored over 18 h
Experimental: Ovarian cancer line OvCa429 were grown in M199 and MCDB 105 (1:1) (Sigma, St Louis, Mo.) supplemented with 10% fetal calf serum (Sigma), 2 mM L-glutamine, 100 units ml-1 penicillin and 100 μgml-1 streptomycin under 5% CO2, and 37 .C high-humidity atmosphere. The cell culture medium was changed every 2-3 days, depending on the rate of cell growth. Cells were sub-cultured using 1× trypsin solution directly on the multielectrode device Impedance data were taken at room temperature of about 22° C. After each recording the cells were placed back in to the incubator. The cell culture medium was not changed throughout the course of the experiment. Impedance measurements were recorded on two separate devices (control and variable) beginning at approximately 80% confluence of the OvCa culture. After 5 h of recording measurements at an interval of approximately 1 h, 20 μl of trypsin was added to the cell culture medium of variable. Trypsin was not added to the control. The impedance was recorded under room conditions and the devices were placed back in the incubator after each measurement frame.
In order to affirm the utility of impedance mapping for tracking physiological changes, the effect of trypsin on the confluent cell culture was analyzed. […] FIG. 6 is the phase angle mapping of control and trypsinized cultures monitored over a period of 18 h.

With trypsin the “effect of trypsin on the confluent cell culture (phase angle shape / cell detachment)” value was “detached the cells from the substrate”.
